Measurements as given in ChEMBL document CHEMBL3120134, “A review of non-nucleoside anti-hepatitis B virus agents” (Eur J Med Chem, 2014).
Blank lines part the entries; values can stand above or below the compound they belong to.

Legend:
[1] = system: Hepatitis B virus; test: Antiviral activity against Hepatitis B virus; assay type: functional, organism-based
[2] = system: Hepatitis B virus; test: Antiviral activity against Hepatitis B virus assessed as inhibition of Hepatitis B virus DNA replication; assay type: functional, organism-based
[3] = system: Duck hepatitis B virus; test: Antiviral activity against Duck Hepatitis B virus infected in duckling assessed as decrease in DHBV level in serum at 120 mg/kg dosed through liquid diet for 10 days administered started on day 7 post-infection; assay type: functional
[4] = system: Hepatitis B virus; test: Antiviral activity against Hepatitis B virus infected in human HepG2.2.15 cells assessed as decrease in HBV e antigen secretion at 200 ug/ml after 9 days by ELISA; assay type: functional; settings: HepG2 2.2.15, 216 h
[5] = system: Hepatitis B virus; test: Antiviral activity against Hepatitis B virus infected in human HepG2.2.15 cells assessed as decrease in HBV surface antigen secretion at 200 ug/ml after 9 days by ELISA; assay type: functional; settings: HepG2 2.2.15, 216 h
[6] = system: Hepatitis B virus; test: Antiviral activity against Hepatitis B virus infected in human HepG2.2.15 cells assessed as decrease in HBV e antigen secretion; assay type: functional, organism-based, HepG2 2.2.15
[7] = system: Hepatitis B virus; test: Antiviral activity against Hepatitis B virus infected in human HepG2.2.15 cells assessed as decrease in HBV surface antigen secretion; assay type: functional, organism-based, HepG2 2.2.15
[8] = system: Hepatitis B virus; test: Antiviral activity against Hepatitis B virus assessed as inhibition of virion production; assay type: functional, organism-based
[9] = system: Hepatitis B virus; test: Antiviral activity against Hepatitis B virus infected in human Huh7 cells assessed as inhibition of HBV particles production; assay type: functional, organism-based; settings: Huh-7
[10] = Selectivity index, ratio of cytotoxicity towards human HepG2.2.15 cells to IC50 for HBV DNA production; assay type: toxicity, cell-based; settings: read-out: Selectivity Index
[11] = system: Hepatitis B virus; test: Antiviral activity against Hepatitis B virus infected in human HepG2.2.15 cells assessed as decrease in HBV DNA production; assay type: functional, organism-based; settings: HepG2 2.2.15

- EC50 [1]: 120 nM
Compound: O=C(Nc1ncc(Cl)s1)c1ccccc1O

- EC50 [1]: 120 nM
Compound: Cc1ccc(O)c(C(=O)Nc2ncc(Cl)s2)c1

- EC50 [1]: 120 nM
Compound: Cc1ccc(C(=O)Nc2ncc(Cl)s2)c(O)c1

- EC50 [1]: 120 nM
Compound: O=C(Nc1ncc(Br)s1)c1ccccc1O

- EC50 [1]: 800 nM
Compound: NC(=O)c1cc2ccc3c(c2c(-c2ccc4c(c2)OCO4)c1C(=O)O)OCO3

- IC50 [1]: < 60 µg/mL
Compound: CCOC(=O)c1c(C[S+]([O-])c2cccc(F)c2)n(C)c2cc(Br)c(O)c(CN3CCOCC3)c12 (stereo not drawn)

- IC50 [2]: 30 nM
Compound: COC(=O)C1=C(C)NC(c2nccs2)=N[C@H]1c1ccc(F)cc1Cl

- IC50 [2]: 150 nM
Compound: COC(=O)C1=C(C)NC(c2ncccc2F)=N[C@@H]1c1ccc(F)cc1Cl

Compound: CC(C)(O)[C@@H]1CC[C@](C)([C@H]2[C@@H](O)C[C@@]3(C)[C@@H]4C[C@H](O[C@@H]5O[C@H](CO)[C@@H](O)[C@H](O)[C@H]5O)[C@H]5C(C)(C)[C@@H](O[C@@H]6OC[C@@H](O)[C@H](O)[C@H]6O)CC[C@@]56C[C@@]46CC[C@]23C)O1
- inhibition in vivo at 120 mg/kg [3]: 64%
- inhibition at 200 µg/mL [4]: 23.3%
- inhibition at 200 µg/mL [5]: 31.8%

Compound: COc1cc2c(cc1OC)-c1c(C)c3ccc4c(c3c[n+]1CC2)OCO4.[OH-]
- inhibition (INH) [6]: 40%
- inhibition (INH) [7]: 50%

Compound: COc1cc2c(cc1O)-c1c(C)c3ccc4c(c3c[n+]1CC2)OCO4.[OH-]
- inhibition (INH) [6]: 40%
- inhibition (INH) [7]: 50%

Compound: COc1cc2c(cc1O)CC[n+]1cc3c4c(ccc3c(C)c1-2)OCO4.[OH-]
- inhibition (INH) [6]: 40%
- inhibition (INH) [7]: 50%

- IC50 [2]: 76400 nM
Compound: COC(=O)c1nc(-c2csc([C@@H](NC(=O)c3cccs3)C(C)C)n2)oc1C

- IC50 [2]: 60000 nM
Compound: CC(C)Cc1sc(-c2nccs2)nc1C(=O)O

- IC50 [2]: 2400 nM
Compound: COC(=O)c1nc(-c2nccs2)sc1CC(C)C

- IC50 [2]: 1100 nM
Compound: CCOC(=O)c1nc(-c2nccs2)sc1CC(C)C

- IC50 [2]: 140 nM
Compound: CCOC(=O)c1nc(-c2ncc(C)s2)sc1CC(C)C

- IC50 [1]: 35000 nM
Compound: Cc1ccc(-c2nnc3sc(CN)cn23)cc1

- IC50 [1]: 63000 nM
Compound: CC(=O)OC[C@H]1O[C@@H](Sc2nnc(-c3ccc(Cl)cc3)n2N)[C@H](OC(C)=O)[C@@H](OC(C)=O)[C@@H]1OC(C)=O

- IC50 [1]: 40000 nM
Compound: Nn1c(SC(c2ccccc2)c2ccccc2)nnc1-c1ccc(Cl)cc1

- EC50 [8]: 1630 nM
Compound: CCC(c1nnc(SCCN2CCN(c3ccccc3OC)CC2)o1)S(=O)(=O)c1ccccc1 (stereo not drawn)

- IC50 [9]: 120 nM
Compound: Cc1cc(C)n2nc(S)nc2c1

- IC50 [1]: < 60 µg/mL
Compound: CCOC(=O)c1c(C[S+]([O-])c2ccc(F)c(F)c2)n(C)c2cc(Br)c(O)c(Cn3ccnc3C)c12 (stereo not drawn)

- IC50 [1]: < 60 µg/mL
Compound: CCOC(=O)c1c(C[S+]([O-])c2ccc(F)cc2)n(C)c2cc(Br)c(O)c(CN3CCOCC3)c12 (stereo not drawn)

- IC50 [1]: < 60 µg/mL
Compound: CCOC(=O)c1c(CS(=O)(=O)c2cccc(OC)c2)n(C)c2ccc(O)c(CN3CCCC3)c12

- IC50 [1]: < 60 µg/mL
Compound: CCOC(=O)c1c(CS(=O)(=O)c2ccc(C)cc2)n(C2CC2)c2ccc(O)c(Cn3ccnc3)c12

- IC50 [11]: 3500 nM
Compound: CCOC(=O)c1cc2cc(OC)c(O)c(Cn3ccnc3)c2nc1C[S+]([O-])c1ccc(F)cc1 (stereo not drawn)
- selectivity ratio [10]: 37.9
